Data reported in patent US20250092032A1, “DEOXYCYTIDINE KINASE INHIBITORS” (CENTRE NATIONAL DE LA RECHERCHE SCIENTIFIQUE, priority 2022, published 2025).

Legend:
[1] = target: T1, dCK (Homo sapiens, UniProt P27707, C45S/C59S/C9S/S74E); test: Affinity assay: Thermal Shift Assay (TSA), dCK thermal stabilization; assay type: binding; settings: dCK protein (C9S, C45S, C59S, S74E); 5 sM of protein, 50 sM of compound, 2% DMSO; mean ± SD
T1 construct: inferred from HisTrap purification with imidazole elution; made in house; host or cells: Escherichia coli BL21 pRIL
Experimental: dCK protein contained three solvent exposed cysteines mutated to serines in order to generate better quality crystals (C9S, C45S, C59S) and a serine mutated to glutamic acid (S74E). The S74E mutation mimics the phosphorylated state of this serine, which favors the open conformation of the enzyme, making it competent for nucleoside binding to evaluate the binding affinity with compounds. BL21 pRIL Escherichia Coli cells were transformed with dCK-plasmid. Cells were grown in LB media containing 100 μg/ml ampicillin and 34 μg/ml chloramphenicol at 18° C. for 20 h after induction with 1 mM IPTG. Cells were re-suspended in 50 mM TRIS, pH 8, 500 mM NaCl, 30 mM imidazole and 10% glycerol buffer containing one EDTA free anti-protease tablet (Roche). After sonication and centrifugation (30,000×g), the supernatant was loaded on a 5 ml HisTrap FF column (GE healthcare) pre-equilibrated with resuspension buffer. Protein was then eluted by re-suspension buffer containing 500 mM imidazole. Protein eluted fractions were mixed and concentrated. Protein was further purified by size exclusion chromatography (superdex 200 16/600, GE healthcare) in 20 mM HEPES, pH 7.5, and 200 mM NaCl before concentration to 30 mg/ml and storage at −80° C.
Thermal Shift Assay (TSA) experiments were performed in triplicate in 384-well PCR white plates (Thermo Scientific, AB-3384) in the assay buffer containing 20 mM HEPES, pH 7.5 and 200 mM NaCl. Final concentrations were adjusted to 5 sM of protein, 50 sM of compound (final 2% DMSO) and dye diluted to 1:1000, as recommended by manufacturer (Protein Thermal Shift Dye, ThermoFisher Scientific). […] Plates were centrifuged at 1000 rpm for 2 min at 4° C. Thermal melting experiments were carried using a CFX-384 Connect RT-PCR (Bio-Rad). Plates were first equilibrated at 25° C.; then, the plates were heated from 25 to 95° C. by 0.5° C./min steps. Raw fluorescence data were treated, and the melting temperatures (Tm) were calculated using CFX Manager 3.1 software (Bio-Rad). ΔTm represents the difference in Tm between the protein in the presence of compound and the protein alone (both at 2% DMSO). Each experiment was performed at least twice (with technical triplicates) and data are presented as the mean f SD in Table 1.

[2] = tested on: CCRF-CEM cell line (T-cell acute lymphoblastic leukemia); test: Cellular assay: inhibition of CCRF-CEM cell proliferation in presence of dT and dC (CellTiter-Blue); assay type: cell-based; settings: Homo sapiens, read-out: CELLULAR ASSAY IC50 (nM), 200 μM dT and 1 μM dC, 72 hours, mean ± SD
Experimental: The cellular assay was set up to assess the ability to inhibit dCK activity in a cellular model. The model was developed with a T-cell acute lymphoblastic leukemia cell line (CCRF-CEM), because of its high dependence on the salvage pathway, thus on dCK activity. Cellular assays were performed to assess the inhibition of cell proliferation under two conditions: i) in the presence of the molecule alone to determine the non-specific effect on cells, independent of dCK (non-specific toxicity) and ii) in the presence of an inhibitor of the De Novo pathway to determine the ability of molecules to inhibit dCK and decrease tumor proliferation (activity on dCK). The inhibitor of the De Novo pathway chosen for the experiments was thymidine (dT), a physiological inhibitor of ribonucleotide reductase which arrests cell proliferation in phase S. The dTTP produced via thymidine kinase from dT acts as a RNR inhibitor by an allosteric regulation of the R1 subunit (FIG. 1). The addition of the nucleoside deoxycytidine (dC) in the medium allows the rescue of cell proliferation by passing only through the salvage pathway, mediated by dCK. Therefore, cell proliferation under these conditions (+dT+dC) is dCK dependent and it is possible to determine the IC50 of dCK inhibitors on the inhibition of cell proliferation. Results are expressed as % cell proliferation relative to the control with DMSO in Table 1.
CCFR-CEM cells were grown at 37° C. in RPMI 1640 with L-glutamine, supplemented with 100 units/ml penicillin, […] streptomycin, and 10% heat-inactivated foetal calf serum. The experiments were carried out on 96-well plates under the following conditions: 14,000 cells per well, RPMI 1640 culture medium supplemented with 10% heat-inactivated foetal calf serum, 200 sM of dT, 1 sM of dC and a range of dilutions of each molecule ranging from 40 μM to 10 μM, depending on the activity of the molecules (final 0.2% DMSO). Cells were incubated for 72 hours under these different conditions and finally, incubated with 10 μl/well of CellTiter-Blue reagent (Promega) for 4 hours at 37° C. The amount of reduced dye formed by metabolically active cells was quantified by its fluorescence measured at 560 nm (excitation) and 590 nm (emission) in a microplate reader (CLARIOstar, BMG Labtech). A blank well without cells was used as a background control. Each experiment was performed at least three times (with technical triplicates) and data are presented as the mean f SD.

[3] = tested on: CCRF-CEM T-ALL cell line; test: In vivo systemic leukemia model: NSG mice inoculated intravenously with luciferase-expressing CCRF-CEM cells; settings: for effect on disease progression / disease burden (bioluminescence): CCRF-CEM leukemia bearing NSG mice, dT 1.5 g/Kg, OR0642 40 mg/Kg (hydrochloride salt) i.p., FIG. 5; for day around which most of the mice died: the two components administered separately, FIG. 8
Experimental: Healthy 6 to 9 weeks-old male mice received 0.1×10^6 luciferase transduced-CCRF-CEM cells in the tail vein on Day 0 and were randomly assigned in four groups to receive intraperitoneal injections from Day 3 (Vehicle (n=8), dT (n=8), OR0642 (n=9) and dT+OR0642 (n=9)). […] Doses administered were: dT at 1.5 g/Kg, OR0642 at 40 mg/Kg and dT+OR0642 at 1.5 g/Kg and 40 mg/Kg, respectively. Vehicle was saline solution (0.9% NaCl) supplemented with 10% Kolliphor EL. OR0642 was administered in its hydrochloride salt form. Drug administration protocol is detailed in FIG. 4. Bioluminescence analysis was performed once/week using PhotonIMAGER Optima (Biospace Lab) following addition of endotoxin-free luciferin (30 mg/kg, Promega). Peripheral blood was obtained at Day 21 to determine the fraction of human blasts using flow cytometry. […] Analyses were performed on a Life Science Research Fortessa flow cytometer with DIVA software (BD Biosciences). The number of ALL cells/L peripheral blood was determined by using CountBright beads (Invitrogen, C36950) using described protocol. Daily monitoring of mice for symptoms of disease (ruffled coat, hunched back, weakness and reduced motility) determined the time of killing for injected animals with signs of distress. Kaplan-Meier curves, bioluminescence quantifications and statistical analyses were generated using Prism (Graphpad Software). Bioluminescence data were presented as the mean f SEM. Comparison of bioluminescence data at Day 21 was performed using One way ANOVA Kruskal-Wallis Test and Dunn's Multiple Comparison Test. Comparison of hCD45 populations was performed using One way ANOVA Kruskal-Wallis Test and Dunn's Multiple Comparison Test. Median survival times were compared using Log-Rank (Mantel-Cox) Test.

T1 sequence (P27707 whole entry C9S/C45S/C59S/S74E): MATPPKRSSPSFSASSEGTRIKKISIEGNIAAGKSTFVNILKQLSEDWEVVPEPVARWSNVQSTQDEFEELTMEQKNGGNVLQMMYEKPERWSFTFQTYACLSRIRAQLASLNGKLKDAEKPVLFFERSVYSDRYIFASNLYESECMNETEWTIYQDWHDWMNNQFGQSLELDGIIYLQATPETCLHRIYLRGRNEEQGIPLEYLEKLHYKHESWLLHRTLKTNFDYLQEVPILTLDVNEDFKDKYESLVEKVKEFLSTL

Row | Structure (SMILES) | AFFINITY ASSAY +ΔTm (°) [1] | IC50 [2] | effect on disease progression / disease burden (bioluminescence) [3] | day around which most of the mice died [3]
1 | CCCN(c1nc(-c2nc(N)cc(N)n2)cs1)c1cc(-c2ccc(S(=O)(=O)N3CCN(CC(=O)O)CC3)cc2)ccc1C [OR0649, 2-(4-((3′-((4-(4,6-Diaminopyrimidin-2-yl)thiazol-2-yl)(propyl)amino)-4′-methyl-[1,1′-biphenyl]-4-yl)sulfonyl)piperazin-1-yl)acetic acid] | 17.6 ± 1.3 ° | 13400 ± 546 nM | – | –
2 | CCCN(c1nc(-c2nc(N)cc(N)n2)cs1)c1cc(-c2ccc(OCC(=O)N3CCN(C)CC3)nc2)ccc1C [OR0630, 2-((5-(3-((4-(4,6-Diaminopyrimidin-2-yl)thiazol-2-yl)(propyl)amino)-4-methylphenyl)pyridin-2-yl)oxy)-1-(4-methylpiperazin-1-yl)ethan-1-one] | 17.4 ± 0.2 ° | – | – | –
3 | CCCN(c1nc(-c2nc(N)cc(N)n2)cs1)c1cc(-c2ccc(S(=O)(=O)N3CCN(C)CC3)cc2C(F)(F)F)ccc1C [OR0642, 2-(2-((4-Methyl-4′-((4-methylpiperazin-1-yl)sulfonyl)-2′-(trifluoromethyl)-[1,1′-biphenyl]-3-yl)(propyl)amino)thiazol-4-yl)pyrimidine-4,6-diamine] | – | – | did not show any anti-proliferative effect | ~26 days
4 | Cc1cn([C@H]2C[C@H](O)[C@@H](CO)O2)c(=O)[nH]c1=O [dT, 1-[(2R,4S,5R)-4-Hydroxy-5-(hydroxymethyl)oxolan-2-yl]-5-methylpyrimidine-2,4(1H,3H)-dione, reference compound] | – | – | scarcely reduced the disease burden | ~26 days
5 | Cc1ccc(-n2cc(CNS(C)(=O)=O)nn2)cc1N(CC(C)C)c1nc(-c2nc(N)cc(N)n2)cs1 [OR0609, N-((1-(3-((4-(4,6-Diaminopyrimidin-2-yl)thiazol-2-yl)(isobutyl)amino)-4-methylphenyl)-1H-1,2,3-triazol-4-yl)methyl) methanesulfonamide] | 13.5 ± 0.7 ° | 3180 ± 611 nM | – | –
6 | CCCN(c1nc(-c2nc(N)cc(N)n2)cs1)c1cc(-c2ccc(S(=O)(=O)N3CCN(C)CC3)nc2)ccc1C [OR0627, 2-(2-((2-Methyl-5-(6-((4-methylpiperazin-1-yl)sulfonyl)pyridin-3-yl)phenyl)(propyl)amino)thiazol-4-yl)pyrimidine-4,6-diamine] | 17.5 ± 0.4 ° | 48 ± 17 nM | – | –
7 | CCCN(c1nc(-c2nccc(N)n2)cs1)c1cc(-c2ccc(OCC(=O)N3CCN(C)CC3)cc2)ccc1C [OR0597, 4-(4-Aminopyrimidin-2-yl)-N-(4-methyl-4′-(2-(4-methylpiperazin-1-yl)-2-oxoethoxy)-[1,1′-biphenyl]-3-yl)-N-propylthiazol-2-amine] | 17.1 ± 0.1 ° | – | – | –
8 | CCCN(c1nc(-c2nc(N)cc(N)n2)cs1)c1cc(-c2cnc(S(=O)(=O)N3CCN(C)CC3)cc2C(F)(F)F)ccc1C [OR0656, 2-(2-((2-Methyl-5-(6-((4-methylpiperazin-1-yl)sulfonyl)-4-(trifluoromethyl)pyridin-3-yl)phenyl)(propyl)amino)thiazol-4-yl)pyrimidine-4,6-diamine] | 21.3 ± 0.8 ° | 3.8 ± 2 nM | – | –
9 | CCCN(c1nc(-c2nc(N)cc(N)n2)cs1)c1cc(-c2ccc(S(=O)(=O)N3CCN(C)CC3)nc2C(F)(F)F)ccc1C [OR0657, 2-(2-((2-Methyl-5-(6-((4-methylpiperazin-1-yl)sulfonyl)-2-(trifluoromethyl)pyridin-3-yl)phenyl)(propyl)amino)thiazol-4-yl)pyrimidine-4,6-diamine] | 22.0 ± 0.4 ° | 1.6 ± 0.9 nM | – | –

Second part, led by results:

Row | AFFINITY ASSAY +ΔTm (°) [1] | IC50 [2] | Structure (SMILES) | effect on disease progression / disease burden (bioluminescence) [3] | day around which most of the mice died [3]
10 | 21.6 ± 0.4 ° | 2.8 ± 1.3 nM | CCCN(c1nc(-c2nc(N)cc(N)n2)cs1)c1cc(-c2ccc(S(=O)(=O)N3CCN(C)CC3)nc2C)ccc1C [OR0653, 2-(2-((2-Methyl-5-(2-methyl-6-((4-methylpiperazin-1-yl)sulfonyl)pyridin-3-yl)phenyl)(propyl)amino)thiazol-4-yl)pyrimidine-4,6-diamine] | – | –
11 | 13.9 ± 0.2 ° | 11300 ± 1370 nM | CCCN(c1nc(-c2nc(N)cc(N)n2)cs1)c1cc(Br)ccc1C [OR0652-1, 2-(2-((5-Bromo-2-methylphenyl)(propyl)amino)thiazol-4-yl)pyrimidine-4,6-diamine] | – | –
12 | 19.2 ± 0.1 ° | 7.3 ± 2.5 nM | CCCN(c1nc(-c2nc(N)cc(N)n2)cs1)c1cc(-c2cnc(S(=O)(=O)N3CCN(C)CC3)cc2C)ccc1C [OR0652, 2-(2-((2-Methyl-5-(4-methyl-6-((4-methylpiperazin-1-yl)sulfonyl)pyridin-3-yl)phenyl)(propyl)amino)thiazol-4-yl)pyrimidine-4,6-diamine] | – | –
13 | 18.3 ± 0.4 ° | 610 ± 153 nM | CCCN(c1nc(-c2nc(N)cc(N)n2)cs1)c1cc(-c2cnc(OC)cc2C(F)(F)F)ccc1C [OR0654, 2-(2-((5-(6-Methoxy-4-(trifluoromethyl)pyridin-3-yl)-2-methylphenyl)(propyl)amino)thiazol-4-yl)pyrimidine-4,6-diamine] | – | –
14 | 19.2 ± 0.6 ° | 31 ± 27 nM | CCCN(c1nc(-c2nc(N)cc(N)n2)cs1)c1cc(-c2ccc(S(=O)(=O)N3CCN(C)CC3)cc2)ccc1C [OR0607, 2-(2-((4-Methyl-4′-((4-methylpiperazin-1-yl)sulfonyl)-[1,1′-biphenyl]-3-yl)(propyl)amino)thiazol-4-yl)pyrimidine-4,6-diamine] | – | –
15 | 19.0 ± 0.0 ° | 251 ± 36 nM | CCCN(c1nc(-c2nc(N)cc(N)n2)cs1)c1cc(-c2cnc(O)cc2C(F)(F)F)ccc1C [OR0655, 2-(2-((5-(6-Hydroxy-4-(trifluoromethyl)pyridin-3-yl)-2-methylphenyl)(propyl)amino)thiazol-4-yl)pyrimidine-4,6-diamine] | – | –
16 | 22.4 ± 0.1 ° | 11.3 ± 2.1 nM | CCCN(c1nc(-c2nc(N)cc(N)n2)cs1)c1cc(-c2ccc(S(=O)(=O)N3CCNCC3)nc2C(F)(F)F)ccc1C [OR0658, 2-(2-((2-Methyl-5-(6-(piperazin-1-ylsulfonyl)-2-(trifluoromethyl)pyridin-3-yl)phenyl)(propyl)amino)thiazol-4-yl)pyrimidine-4,6-diamine] | – | –
17 | 14.9 ± 0.2 ° | 8310 ± 1870 nM | Cc1ccc(Br)cc1N(CC(C)C)c1nc(-c2nc(N)cc(N)n2)cs1 [OR0637-1, 2-(2-((5-Bromo-2-methylphenyl)(isobutyl)amino)thiazol-4-yl)pyrimidine-4,6-diamine] | – | –
